In patent US9540389B2, “Antimicrobial potentiators” (priority 2013, dated 2017):

Assays:
[1] = tested on: Escherichia coli AB1157 ΔacrB; test: MIC assay (microbroth dilution); type: cell-based; settings: for MIC: Escherichia coli, read-out: MICs (μg/ml) ΔacrB None; for MIC Ratio ΔacrB: MIC WT/MIC ΔacrB; for MICs (μg/ml) ΔacrB None: ΔacrB strain, no EPI, geometric mean
Text: (§1) • Strains and Reagents. The following strains were obtained from the Keio collection (Baba, et al.: Construction of Escherichia coli K-12 in-frame, single-gene knockout mutants: the Keio collection. In Mol Syst Biol, vol. 2, pp. 2006 0008, (2006)): JW0451 (ΔacrB::kan), JW5503 (ΔtolC::kan), JW3234 (ΔacrF::kan), JW2661 (ΔemrB::kan), JW0863 (ΔmacB::kan). The deletion mutations in each of these strains were transferred to AB1157 using P1 phage transduction (see Table 1). The construction of the E. coli cell-based reporter strain (SOS-XXX) that was used for high throughput screening is described in detail in the supplementary information. […] Irgasan was a generous gift from Ciba Speciality Chemicals, Inc. (High Point, N.C.). Hoechst 33342 (H33342) was purchased from Molecular Probes (Eugene, Oreg.). […] Luria Broth (Miller) and agar were purchased as prepared dehydrated media from Becton Dickenson (Franklin Lakes, N.J.). The compound libraries used in high-throughput screens were purchased from Chembridge (San Diego, Calif.), ChemDiv (San Diego, Calif.), and TimTec (Newark, Del.). MBX2319 was synthesized by Microbiotix, Inc. • Antibacterial Activity Assays. The minimal inhibitory concentration (MIC) of antibacterial agents and biocides were determined using the microbroth dilution method essentially as described in the CLSI protocol M7-A7 (CLSI: Method for dilution antimicrobial susceptibility testing for bacteria that grow aerobically; Approved standard-document M7-A7. In Clinical and Laboratory Standards Institute document M7-A7, Clinical and Laboratory Standards Institute, Wayne, Pa., (2006)), with the following exceptions. LB media was used instead of MHB. […] The final concentration of DMSO in each assay was 2%. […] MIC assays were performed in triplicate and the geometric mean was calculated. Checkerboard MIC assays using an EPI and an antibacterial agent were performed essentially as described (Pillai, et al.: Antimicrobial Combinations. In Antibiotics in Laboratory Medicine, ed. by V. Lorian, pp. 365-440, Lippincott Williams & Wilkins, Philadelphia, Pa., (2005)), with the same modifications used for the MIC assays described above. • Time-Kill Assays. Killing curve assays were performed essentially as described (Pillai, et al.: Antimicrobial Combinations. In Antibiotics in Laboratory Medicine, ed. by V. Lorian, pp. 365-440, Lippincott Williams & Wilkins, Philadelphia, Pa., (2005)). Exponential bacterial cultures grown in LB were diluted to a cell density of ˜1×10^7 in LB followed by addition of CIP and/or an EPI. Viability was monitored over 2-4 hours by making serial dilutions in saline and spotting 5 μl of each dilution onto the surface of an LB agar plate in triplicate. Colonies were counted after the plates were incubated at 37° C. for 16-18 hr, colony forming units (CFU) per ml were calculated, and the average and standard deviation for the three replicates was determined. For treatments that decreased CFU/ml below the limit of detection for the spot plating method, the 100 μl samples were diluted into 5 ml LB top agar, were poured onto LB agar plates, and incubated for 18 hr at 37° C. To calculate the fraction of the control for each sample, the average CFU/ml values for treated samples were divided by those from the same sample at 0 h (time=0). Each experiment was repeated at least three times, and a representative experiment is shown. • H33342 Accumulation Assay. The rate of accumulation of the fluorescent dye Hoechst 33342 (H33342), which is a substrate of a wide variety of bacterial efflux pumps (van den Berg van Saparoea, et al., Biochemistry, vol. 44, pp. 16931-16938, (2005)), can be used to estimate the activity of the major efflux pumps in E. coli and many other bacterial species. The H33342 accumulation assay was used to evaluate the effect of EPIs on the activity of the AcrAB-TolC efflux pump in several bacterial species essentially as described (Coldham, et al., J Antimicrob Chemother, vol. 65, pp. 1655-1663, (2010)). […]

Escherichia coli AB1157 = test: MIC assay (microbroth dilution) ± 25 μM EPI; type: cell-based; settings: for MICs (μg/ml) ± EPIs: MBX2319 / MICs (μg/ml) ± EPIs: PAβN / MICs (μg/ml) ± EPIs: None: E. coli AB1157 (WT), geometric mean; for MICs (μg/ml) ± EPIs: MBX2319: + 25 μM MBX2319; for MIC: Escherichia coli, AB1157, read-out: MICs (μg/ml) ± EPIs: None; for MICs (μg/ml) ± EPIs: PAβN: + 25 μM PAβN; for MIC Ratio MBX2319 / MIC Ratio PAβN: E. coli AB1157; for MIC Ratio MBX2319: MIC no cmpd/MIC + 25 μM MBX2319; for MIC Ratio PAβN: MIC no cmpd/MIC + 25 μM PAβN; for MICs (μg/ml) ± EPIs: None: no EPI
Text: as §1

[2] = tested on: Enterobacter aerogenes ATCC 13048; test: MIC assay (microbroth dilution) ± 25 μM EPI; type: cell-based
Text: as §1

Escherichia coli 331 = test: MIC assay (microbroth dilution) ± 25 μM EPI; type: cell-based; settings: E. coli 331
Text: as §1

[3] = tested on: Escherichia coli ATCC 25922; test: MIC assay (microbroth dilution) ± 25 μM EPI; type: cell-based; settings: E. coli ATCC 25922
Text: as §1

[4] = tested on: Klebsiella pneumoniae ATCC 700603; test: MIC assay (microbroth dilution) ± 25 μM EPI; type: cell-based
Text: as §1

[5] = tested on: Salmonella enterica ATCC 14028; test: MIC assay (microbroth dilution) ± 25 μM EPI; type: cell-based
Text: as §1

[6] = tested on: Shigella flexneri ATCC 12022; test: MIC assay (microbroth dilution) ± 25 μM EPI; type: cell-based
Text: as §1

P. aeruginosa ATCC 27853 = test: MIC assay (microbroth dilution) ± 25 μM EPI; type: cell-based, Pseudomonas aeruginosa
Text: as §1

Row | Compound | MIC [1] [µg/mL] | MICs (μg/ml) ± EPIs: MBX2319 (Escherichia coli AB1157) [µg/mL] | MIC (Escherichia coli AB1157) [µg/mL] | MICs (μg/ml) ± EPIs: PAβN (Escherichia coli AB1157) [µg/mL] | MIC Ratio MBX2319 (Escherichia coli AB1157) | MIC Ratio PAβN (Escherichia coli AB1157) | MIC Ratio ΔacrB [1] | also measured
1 | CN(C)[C@@H]1C(O)=C(C(N)=O)C(=O)[C@@]2(O)C(O)=C3C(=O)c4c(O)cccc4[C@@](C)(O)[C@H]3C[C@@H]12 [Tetracycline] | 0.5 | – | – | – | – | – | – | –
2 | CO[C@H]1/C=C/O[C@@]2(C)Oc3c(C)c(O)c4c(O)c(c(/C=N/N5CCN(C)CC5)c(O)c4c3C2=O)NC(=O)/C(C)=C\C=C\[C@H](C)[C@H](O)[C@@H](C)[C@@H](O)[C@@H](C)[C@H](OC(C)=O)[C@@H]1C [Rifampicin] | 8 | 8 | 8 | – | – | – | – | –
3 | Cc1onc(-c2ccccc2Cl)c1C(=O)N[C@@H]1C(=O)N2[C@@H]1SC(C)(C)[C@@H]2C(=O)O [Cloxacillin] | 4 | 128 | 256 | 64 | 2 | 4 | 64 | –
4 | CC1=C(C(=O)O)N2C(=O)[C@@H](NC(=O)[C@H](N)c3ccccc3)[C@H]2SC1 [Cephalexin] | 32 | 16 | 32 | 16 | 2 | 2 | 1 | –
5 | CCn1cc(C(=O)O)c(=O)c2ccc(C)nc21 [Nalidixic acid] | 8 | 8 | 16 | 1 | 2 | 16 | 2 | –
6 | CC[n+]1c(-c2ccccc2)c2cc(N)ccc2c2ccc(N)cc21 [Ethidium Br, Ethidium Bromide] | 8 | 256 | 256 | 16 | 1 | 16 | 32 | –
7 | Oc1cc(Cl)ccc1Oc1ccc(Cl)cc1Cl [Irgasan] | – | 0.125 | – | 0.031 | 2 | 8 | 8 | MICs (μg/ml) ± EPIs: None (Escherichia coli AB1157): 0.25 µg/mL; MICs (μg/ml) ΔacrB None [1]: 0.031 µg/mL
8 | Cc1onc(-c2ccccc2)c1C(=O)N[C@@H]1C(=O)N2[C@@H]1SC(C)(C)[C@@H]2C(=O)O [Oxacillin] | 4 | 64 | 512 | – | – | – | – | –
9 | O=C(O)c1cn(C2CC2)c2cc(N3CCNCC3)c(F)cc2c1=O [Ciprofloxacin] | – | – | – | 0.031 | – | – | – | MIC (μg/ml) ± EPI: MBX2319 ([2]; + 25 μM MBX2319): 0.008 µg/mL; MIC (μg/ml) ± EPI: PAβN ([2]; + 25 μM PAβN): 0.031 µg/mL; MIC ([2]; Klebsiella aerogenes, ATCC13048, no EPI, read-out: MIC (μg/ml) ± EPI: None): 0.037 µg/mL; MIC (μg/ml) ± EPI: MBX2319 (Escherichia coli 331; + 25 μM MBX2319): 32 µg/mL; MIC (μg/ml) ± EPI: PAβN (Escherichia coli 331; + 25 μM PAβN): 128 µg/mL; MIC (Escherichia coli 331; Escherichia coli, no EPI, read-out: MIC (μg/ml) ± EPI: None): 128 µg/mL; MIC (μg/ml) ± EPI: MBX2319 ([3]; + 25 μM MBX2319): 0.005 µg/mL; MIC (μg/ml) ± EPI: PAβN ([3]; + 25 μM PAβN): 0.022 µg/mL; MIC (μg/ml) ± EPI: MBX2319 ([4]; + 25 μM MBX2319): 0.088 µg/mL; MIC (μg/ml) ± EPI: PAβN ([4]; + 25 μM PAβN): 0.25 µg/mL; MIC ([4]; ATCC700603, no EPI, read-out: MIC (μg/ml) ± EPI: None): 0.29 µg/mL; MIC (μg/ml) ± EPI: MBX2319 ([5]; + 25 μM MBX2319): 0.008 µg/mL; MIC (μg/ml) ± EPI: PAβN ([5]; + 25 μM PAβN): 0.044 µg/mL; MIC ([5]; ATCC14028, no EPI, read-out: MIC (μg/ml) ± EPI: None): 0.031 µg/mL; MIC (μg/ml) ± EPI: PAβN ([6]; Shigella flexneri ATCC 12022, + 25 μM PAβN): 0.031 µg/mL; MIC ([6]; Shigella flexneri, ATCC12022, read-out: MIC (μg/ml) ± EPI: None): 0.031 µg/mL; MIC (μg/ml) ± EPI: PAβN (P. aeruginosa ATCC 27853; + 25 μM PAβN): 0.149 µg/mL; MIC (P. aeruginosa ATCC 27853; Pseudomonas aeruginosa, ATCC27853, no EPI, read-out: MIC (μg/ml) ± EPI: None): 0.21 µg/mL
10 | CCn1cc(C(=O)O)c(=O)c2cc(F)c(N3CCNCC3)cc21 [Norfloxacin] | 0.016 | 0.063 | 0.063 | 0.063 | 1 | 1 | 4 | –
11 | Gentamicin | – | 8 | – | 8 | 0.5 | 0.5 | 1 | MICs (μg/ml) ± EPIs: None (Escherichia coli AB1157): 4 µg/mL; MICs (μg/ml) ΔacrB None [1]: 4 µg/mL
12 | O=C(N[C@H](CO)[C@H](O)c1ccc([N+](=O)[O-])cc1)C(Cl)Cl [Cloramphenicol] | – | 2 | – | 2 | 4 | 4 | 4 | MICs (μg/ml) ± EPIs: None (Escherichia coli AB1157): 8 µg/mL; MICs (μg/ml) ΔacrB None [1]: 2 µg/mL
13 | CN(C)c1ccc(C(=C2C=CC(=[N+](C)C)C=C2)c2ccc(N(C)C)cc2)cc1 [Crystal violet] | 1 | 8 | 16 | 1 | 2 | 16 | 16 | –
14 | CC1(C)S[C@@H]2[C@H](NC(=O)[C@H](N)c3ccc(O)cc3)C(=O)N2[C@H]1C(=O)O [Amoxacillin] | – | 4 | – | 4 | 1 | 1 | 0.5 | MICs (μg/ml) ± EPIs: None (Escherichia coli AB1157): 4 µg/mL; MICs (μg/ml) ΔacrB None [1]: 8 µg/mL
